Source: ChEMBL document CHEMBL6153172, “MALT1 Inhibitors and Degraders: Strategies for NF-κB-Driven Malignancies” (J Med Chem, 2025)
Blank lines part the entries; values can stand above or below the compound they belong to. Where a SMILES comes first, the peptide text is derived from it. The star is where a group is joined. Cbz = O=C(OCc1ccccc1)*; CH2F = FC*

Columns and labels:
OCI-Ly3 [1] = assay: Growth inhibition of human OCI-Ly3 cells
[2] = biological target: T1, Mucosa-associated lymphoid tissue lymphoma translocation protein 1 (Homo sapiens, UniProt Q9UDY8)
T1 sequence (Q9UDY8 whole entry): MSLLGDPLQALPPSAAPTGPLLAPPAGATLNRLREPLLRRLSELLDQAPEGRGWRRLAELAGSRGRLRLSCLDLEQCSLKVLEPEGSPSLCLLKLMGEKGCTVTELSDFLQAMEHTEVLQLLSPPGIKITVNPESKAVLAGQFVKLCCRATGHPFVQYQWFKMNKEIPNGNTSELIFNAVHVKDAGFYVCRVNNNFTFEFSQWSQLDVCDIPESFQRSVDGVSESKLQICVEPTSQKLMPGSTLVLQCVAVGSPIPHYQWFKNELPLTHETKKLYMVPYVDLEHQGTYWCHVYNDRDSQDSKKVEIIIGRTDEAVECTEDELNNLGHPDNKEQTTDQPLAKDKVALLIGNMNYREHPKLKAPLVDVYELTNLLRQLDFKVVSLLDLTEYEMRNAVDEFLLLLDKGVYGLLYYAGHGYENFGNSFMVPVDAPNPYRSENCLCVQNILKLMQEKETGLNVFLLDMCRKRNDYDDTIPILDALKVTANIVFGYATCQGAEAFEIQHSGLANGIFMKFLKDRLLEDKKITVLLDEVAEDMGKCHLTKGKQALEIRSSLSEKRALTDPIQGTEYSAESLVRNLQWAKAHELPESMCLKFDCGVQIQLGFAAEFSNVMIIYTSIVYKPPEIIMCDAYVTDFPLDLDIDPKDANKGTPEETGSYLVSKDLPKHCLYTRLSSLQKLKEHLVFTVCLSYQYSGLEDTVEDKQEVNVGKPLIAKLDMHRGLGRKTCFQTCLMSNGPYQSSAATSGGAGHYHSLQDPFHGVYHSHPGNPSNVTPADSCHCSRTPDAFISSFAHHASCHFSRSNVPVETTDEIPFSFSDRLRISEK
Description: Inhibition of MALT1 (unknown origin)

[3] = biological target: T1, Mucosa-associated lymphoid tissue lymphoma translocation protein 1; assay: Inhibition MALT1 (unknown origin) using Ac-LRSR-AMC as substrate by fluorescence based analysis
[4] = biological target: T1, Mucosa-associated lymphoid tissue lymphoma translocation protein 1; assay: biochemical
Description: Inhibition of C-terminal human full length wild type MALT1 (329 to 824 residues) extracted from baculovirus infected Sf21 cells using Ac-Leu-Arg-Ser-Arg-Rh110-dPro incubated for 60 mins by fluorescence based analysis

[5] = biological target: T1, Mucosa-associated lymphoid tissue lymphoma translocation protein 1; assay: biochemical; remark: listed apart in the source
Description: Inhibition of human full length His-tagged MALT1 (1 to 824 residues) infected in baculovirus infected Insect cells using Ac-LRSR-AMC as substrate incubated for 1 hr by HTRF assay

[6] = biological target: T1, Mucosa-associated lymphoid tissue lymphoma translocation protein 1; assay: biochemical; remark: listed apart in the source
Description: Inhibition of N-terminal recombinant human MALT1 (329 to 824 residues) extracted from baculovirus infected Sf21 cells using c-LRSR~Rhodamine110-DP as substrate by fluorescence based assay

[7] = biological target: T1, Mucosa-associated lymphoid tissue lymphoma translocation protein 1; assay: Inhibition of N-terminal human recombinant MALT1 expressed in Jurkat cells assessed as suppression of IL-2 secretion
[8] = biological target: T1, Mucosa-associated lymphoid tissue lymphoma translocation protein 1; remark: listed apart in the source
Description: Binding affinity to full length C-terminal His-tagged wild-type MALT1 catalytic domain (329 to 566 residues) (unknown origin) extracted from Escherichia coli BL21 (DE3) assessed as inhibition constant

OCI-Ly3 [9] = assay: Antiproliferative activity against human OCI-Ly3 cells; type: functional, cell-based
[10] = biological target: T1, Mucosa-associated lymphoid tissue lymphoma translocation protein 1; assay: Inhibition of GST-tagged human recombinant MALT1 extracted from Escherichia coli using Ac-LRSR-AMC as substrate by fluorescence based analysis

SMILES: COC(C)c1c(NC(=O)Nc2cnc(-n3nccn3)c(C(F)(F)F)c2)cnc2sc(C)nc12 (stereo not drawn)
IC50 [2]: < 50 nM

SMILES: CO[C@@H](c1c(NC(=O)Nc2cnc(-n3nccn3)c(C(F)(F)F)c2)cnc(C)c1C#N)C1CC1
IC50 [2]: 20 nM

SMILES: CO[C@@H](C)c1c(NC(=O)Nc2cncc(C(F)(F)F)c2)cnc2cc(Cl)nn12
IC50 [3]: 4 nM

SMILES: CO[C@H](C)c1c(NC(=O)Nc2cnc(C(=O)N3CCCC3)c(Cl)c2)cnc2cc(Cl)nn12
IC50 [4]: 14 nM

SMILES: CO[C@@H](C)c1c(NC(=O)Nc2cnc3c(c2)COc2ccnn2-3)cnc2cc(Cl)nn12
IC50 [5]: 34 nM

SMILES: C[C@]1(C(F)(F)F)CN(C(=O)Nc2cnc(-n3nccn3)c(Cl)c2)c2cnc3cc(Cl)nn3c21
IC50 [5]: < 10 nM

SMILES: O=C(Nc1cncc(C(F)(F)F)c1)Nc1cnn2cc(Cl)nc2c1C1CC1
IC50 [2]: < 100 nM

SMILES: O=C1NC2C=CC(n3ncc(C(=O)Nc4cnc(-n5nccn5)c(Cl)c4)c3C(F)(F)F)=C3C=CC=C1C32 (stereo not drawn)
IC50 [5]: 15 nM

Next, values leading:

GI50 (OCI-Ly3 [1]): 2500 nM
SMILES: CC(C)[C@H](NC(=O)OCc1ccccc1)C(=O)N[C@@H](CCCNC(=N)N)C(=O)N1CCC[C@H]1C(=O)N[C@@H](CCCNC(=N)N)C(=O)CF

GI50 (OCI-Ly3 [1]): 87 nM
SMILES: CC(C)[C@H](NC(=O)c1ccc(Br)cc1)C(=O)N1CCC[C@H]1C(=O)N[C@@H](CCCNC(=N)N)C(=O)CF

IC50 [5]: 34 nM
SMILES: CC1(C(F)(F)F)CN(C(=O)Nc2ccc3nonc3c2)c2cnc3cc(Cl)nn3c21 (stereo not drawn)

IC50 [6]: 16 nM
IC50 [7]: 53 nM
SMILES: CCc1ccc2cnn(C)c2c1NS(=O)(=O)c1ccc(N2C[C@](O)(C(F)(F)F)CC2=O)nc1

GI50 (OCI-Ly3 [1]): 768 nM
SMILES: CC(C)C[C@H](NC(=O)OCc1ccccc1)C(=O)N[C@H](C(=O)N1CCC[C@H]1C(=O)N[C@@H](CCCNC(=N)N)C(=O)CF)C(C)C (Cbz-LVPR-CH2F)

Ki [8]: 30 nM
GI50 (OCI-Ly3 [1]): 5620 nM
SMILES: CC(C)[C@H](NC(=O)OCc1ccccc1)C(=O)N1CCC[C@H]1C(=O)N[C@@H](CCCNC(=N)N)C(=O)CF (Cbz-Val-Pro-Arg-CH2F)

IC50 (OCI-Ly3 [9]): 4 µM
SMILES: CC1(C)CCC2=C(O1)c1ccccc1C(=O)C2=O [LAPACHONE]

IC50 [10]: 3.79 µM
SMILES: CN(C)CCCN1c2ccccc2Sc2ccccc21 [PROMAZINE]
